For assay [1], the system named is c-Myc27 oligonucleotide G-quadruplex. Description: ECD melting curve of c-Myc27 oligonucleotide G-quadruplex with ligands. The assay is classed as binding. Particulars: ECD at 263 nm; molar ratio oligonucleotide:ligand 1:1 (5 μmol l^−1 each); Li+-cacodylate buffer. The protocol:
ECD spectra were measured on J-815 spectrometer (Jasco, Japan). Measurement settings (Tab. 3), spectra saving and background subtraction was performed in a Spectra Manager software (Jasco, Japan).
For measurement of the temperature dependencies the cuvettes in the cuvette compartment were placed in the Peltier module, the temperature was controlled by the Spectra Manager software. Melting curves were measured at a wavelength which corresponds to the maximum difference in signal intensity of ECD spectra of oligonucleotide at 25 and 95° C., as shown in FIG. 1. Before and after measuring the melting curves, ECD spectra in extreme temperatures were measured, in order to verify the stability of the studied system.
Processing of the spectra was performed using Spectra Manager (Jasco, Japan). The resulting spectra were obtained from the measured sample spectrum after subtraction of background spectrum, which was spectrum of the solvent. Measuring of sample spectrum and background was conducted under identical conditions. ECD spectra are reported as ellipticity, labeled in the CD figures [mdeg], whose numerical value is associated with dimensionless circular dichroism ΔA (CDv=32980 ΔAv). This CD notations preserves conventions of the international journals in which articles from the field are published.
Stock solution of […] was prepared from c-Myc27 oligonucleotide by dissolution in H2O. The cuvette of 1 mm thickness was filled with 7 μl of oligonucleotide solution and 133 μl of Li^+-cacodylate buffer. Oligonucleotide solution in the cuvette was overlayed with mineral oil to measure temperature dependencies without concentration changes due to evaporation of the solvent at higher temperatures.
From stock solutions of the racemic ligands in DMSO at a concentration of […] solutions were prepared at a concentration of 140 μmol l^−1 by dissolving in H2O. Ligands were added to the solution of oligonucleotide under buffer/mineral oil interface using Hamilton microsyringe (5 μl of solution at a concentration of […]). The resulting molar ratio of oligonucleotide:ligand was 1:1.
The cuvette filled with c-Myc27 oligonucleotide solution in Li^+-cacodylate buffer (cc-Myc27=5 μmol l^−1) was first heated for 5 minutes at 95° C., at this temperature ECD spectrum was measured. Then the sample was cooled to 25° C., allowed to stabilize for 10 min and then ECD spectrum was measured again. Then, the melting curve of ECD oligonucleotide at 263 nm was measured in the temperature range 25-95° C. and for verification of the stability of the sample spectra the spectra were measured again at 95 and 25° C. Under the oil layer ligand solution (cligand=5 μmol l^−1) was added to a solution of oligonucleotide, the sample was thoroughly mixed and ECD spectrum measured at 25° C., the melting curve was obtained and again control spectra were measured at 95 and 25° C.
Decomposition of the G-quadruplex structure in the presence of ligands under influence of temperature was monitored at the wavelength corresponding to the maximum difference in signal intensities of ECD oligonucleotide/ligand at 25 and 95° C., i.e. at 263 nm. Thermal stability of G-quadruplex was monitored in the range of 25 to 95° C. and in a molar ratio of oligonucleotide:ligand=1:1. Example of influence of the studied ligand on the stability of G-quadruplex formed from c-Myc27 oligonucleotide is shown in FIG. 2.
The degree of G-quadruplex stabilization was expressed as change of melting temperature caused by the presence of G-quadruplex ligands (ΔTm): ΔTm=Tm,oligonucleotide+ligand−Tm,oligonucleotide (1), • where Tm,oligonucleotide+ligand is melting temperature of molecular system comprising the oligonucleotide and the ligand and Tm,oligonucleotide, the melting temperature of the oligonucleotide itself. Tab. 4 summarizes the changes in melting temperatures of c-Myc27 oligonucleotide G-quadruplex in the presence of studied ligands.

The subject of a further assay is c-myc protein. The assay can be described thus: Immunodetection of protein c-myc in HGC-27 cell lysates (Western blot). Particulars: 50 μmol · l^−1, 24 hour incubation, normalized to β-actin. In kind it is cell-based, human. The method, boiled down: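 HGC-27 cells seeded at 25,000 cells/cm^2, treated next day with 50 μmol·l^−1 helquat for 24 h. RIPA lysates separated by 12% SDS-PAGE, blotted and probed for c-myc with β-actin loading control; chemiluminescence densitometry, c-myc normalized to β-actin and expressed relative to untreated control.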

Consider `Cc1c(C)c2c(c3c1CC[n+]1ccc(/C=C/c4cccc5c4oc4ccccc45)cc1-3)-c1c3ccccc3cc[n+]1CC2` (racemic) [MJA-C13-8, (rac)-(E)-13-(2-(dibenzo[b,d]furan-4-yl)vinyl)-6,7-dimethyl-4,5,8,9-tetrahydroisoquinolino[1,2-a]pyrido[1,2-k][2,9]phenanthroline-3,10-diium trifluoromethanesulfonate], for which, in assay [1], the “ΔTm (° C.)” value was found to be 6.8 °C. Also, the “c-myc protein expression relative to control (control = 100%)” value in the assay on c-myc protein came to 58%.
As for `C(=C\c1c(-c2ccccc2)[nH]c2ccccc12)/c1cc2ccccc2[n+]2c1-c1c(ccc3c1-c1cccc[n+]1CCC3)CCC2.O=S(=O)([O-])C(F)(F)F.O=S(=O)([O-])C(F)(F)F` [MSC-C15-8, 19-((E)-2-(2-phenyl-1H-indol-3-yl)vinyl)-6,7,8,11,12,13-hexahydropyrido[1′″,2′″:1″,2″]azepino[4″,3″:5′,6′]benzo[1′,2′:3,4]azepino[1,2-a]quinoline-5,14-diium trifluoromethanesulfonate], in the assay with c-myc protein, the “c-myc protein expression relative to control (control = 100%)” value worked out at 58%.
For the compound `Brc1ccc2[nH]cc(/C=C/c3cc4ccccc4[n+]4c3-c3c(ccc5c3-c3cccc[n+]3CCC5)CCC4)c2c1.O=S(=O)([O-])C(F)(F)F.O=S(=O)([O-])C(F)(F)F` [MSC-C9-30, 19-((E)-2-(5-bromo-1H-indol-3-yl)vinyl)-6,7,8,11,12,13-hexahydropyrido[1′″,2′″:1″,2″]azepino[4″,3″:5′,6′]benzo[1′,2′:3,4]azepino[1,2-a]quinoline-5,14-diium trifluoromethanesulfonate], in the assay on c-myc protein, the “c-myc protein expression relative to control (control = 100%)” value is reported as 14%.

For the origin of these results see patent publication US9932339B2, “Helquats with heteroaromatic substituents, preparation thereof, and use thereof as G-quadruplex stabilizers” (USTAV ORGANICKE CHEMIE A BIOCHEMIE AV CR, V.V.I., priority 2014, dated 2018).
